From ChEMBL document CHEMBL2203096, “Recent advances in hypoxia-inducible factor (HIF)-1 inhibitors” (Eur J Med Chem, 2012)

Legend:
[1] = Apparent permeability across human Caco2 cells at 20 uM; type: ADME, cell-based; conditions: Caco-2
[2] = Apparent permeability across human Caco2 cells at 10 uM; type: ADME, cell-based; conditions: Caco-2
[3] = Metabolic stability in human Hepatocyte assessed as compound remaining at 1 umol/L after 2 hrs by RP-HPLC analysis; type: ADME, cell-based; conditions: hepatocytes, read-out: Stability
[4] = Metabolic stability in rat Hepatocyte assessed as compound remaining at 1 umol/L after 2 hrs by RP-HPLC analysis; type: ADME, cell-based; conditions: hepatocytes, read-out: Stability
[5] = Antitumor activity against human Hep3B cells xenografted in nude mouse assessed as reduction in tumor size at 10 to 30 mg/kg/day, ip for 2 weeks (reference value: 900 mm3); type: functional, Hep 3B2; conditions: route intraperitoneal
[6] = molecular target: T1, Hypoxia-inducible factor 1-alpha (Homo sapiens, UniProt Q16665); assay: Inhibition of HIF-1alpha-mediated VEGF secretion in human Hep3b cells by ELISA; type: cell-based
T1 sequence (Q16665 whole entry): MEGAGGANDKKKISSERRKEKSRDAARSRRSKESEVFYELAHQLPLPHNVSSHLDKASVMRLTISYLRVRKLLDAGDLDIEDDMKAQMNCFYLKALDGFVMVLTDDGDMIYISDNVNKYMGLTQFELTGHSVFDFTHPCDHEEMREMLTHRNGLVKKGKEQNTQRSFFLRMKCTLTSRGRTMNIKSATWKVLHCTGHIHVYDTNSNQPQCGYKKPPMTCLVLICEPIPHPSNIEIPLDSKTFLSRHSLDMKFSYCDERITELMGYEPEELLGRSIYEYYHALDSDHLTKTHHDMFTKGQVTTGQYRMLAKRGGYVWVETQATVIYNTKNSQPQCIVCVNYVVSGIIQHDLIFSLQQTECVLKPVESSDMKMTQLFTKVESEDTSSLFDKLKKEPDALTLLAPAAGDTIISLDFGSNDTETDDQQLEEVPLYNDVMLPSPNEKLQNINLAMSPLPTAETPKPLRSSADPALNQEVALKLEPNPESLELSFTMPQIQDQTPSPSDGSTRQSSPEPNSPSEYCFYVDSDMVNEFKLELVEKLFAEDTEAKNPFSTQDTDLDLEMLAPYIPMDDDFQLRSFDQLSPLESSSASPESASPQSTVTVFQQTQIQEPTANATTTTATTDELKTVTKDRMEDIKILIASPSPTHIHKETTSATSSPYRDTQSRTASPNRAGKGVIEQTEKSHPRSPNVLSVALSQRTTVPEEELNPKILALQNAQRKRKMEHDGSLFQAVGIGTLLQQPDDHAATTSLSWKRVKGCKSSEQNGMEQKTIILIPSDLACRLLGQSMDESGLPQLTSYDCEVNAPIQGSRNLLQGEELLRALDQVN

[7] = molecular target: T1, Hypoxia-inducible factor 1-alpha; assay: Inhibition of HIF-1alpha-mediated VEGF expression in human Hep3b cells by luciferase reporter gene assay; type: cell-based
[8] = molecular target: T1, Hypoxia-inducible factor 1-alpha; assay: Inhibition of HIF-1alpha transcriptional co-activator p300 interaction
[9] = system: MDA-MB-435; assay: Antitumor activity against human MDA-MB-435 cells xenografted in nude mouse assessed as inhibition of tumor growth at 20 to 50 mg/kg, qd for 5 weeks; type: functional; conditions: dose mg/kg 20-50
[10] = Apparent permeability across human Caco2 cells at 5 uM; type: ADME, cell-based; conditions: Caco-2
[11] = system: Mus musculus; assay: Toxicity in human HCT116 cells xenografted mouse assessed as decrease in body weight at 30 mg/kg, iv; type: organism-based, HCT-116; set-up: dose 30 mg/kg, route intravenous; scale not given: the % may be the effect or the level left; conditions: in vivo
[12] = system: HCT-116; assay: Antitumor activity against human HCT116 cells xenografted in mouse assessed as inhibition of tumor growth at 30 mg/kg, iv; type: functional; conditions: read-out: TGI
[13] = molecular target: T1, Hypoxia-inducible factor 1-alpha; assay: Inhibition of HIF-1alpha in human HCT116 cells under hypoxia condition by HRE-luciferase reporter gene assay; type: cell-based, HCT-116
[14] = molecular target: T1, Hypoxia-inducible factor 1-alpha; assay: Inhibition of HIF-1alpha in human LN229 cells under hypoxia condition by HRE-luciferase reporter gene assay; type: cell-based
[15] = system: Nucleic Acid; assay: Binding affinity to HIF-1 5'-CGTG-3' DNA sequence in human U251 cells assessed as inhibition of HRE-mediated reporter activation; type: cell-based; conditions: u-251
[16] = Antitumor activity against human […] cells xenografted in athymic nude mice assessed as reduction of tumor size at 20 mg/kg, qd; type: functional; set-up: scale not given: the % may be the effect or the level left

With `CNC(=C[N+](=O)[O-])NCCSCc1ccc(CN(C)C)o1` [RANITIDINE] the Papp at 20 µM [1] was 6 nm/s.

In the case of `COCCc1ccc(OCC(O)CNC(C)C)cc1` (centres undefined) [METOPROLOL], the Papp at 10 µM [2] is reported as 272 nm/s.

In the case of `COc1cc2c(cc1O)CC[C@@H]1[C@@H]2CC[C@]2(C)[C@@H](O)CC[C@@H]12` [2-METHOXYESTRADIOL], the remaining at 2 h, 1 µM [3] is reported as > 65% and the remaining at 2 h, 1 µM [4] is reported as > 65%.

With `COc1cc2c(cc1C(N)=O)CC[C@@H]1[C@@H]2CC[C@]2(C)CCC[C@@H]12` the remaining at 2 h, 1 µM [3] was > 65% and the remaining at 2 h, 1 µM [4] was > 65%.

Molecule `Cn1c(CO)ccc1-c1nn(Cc2ccccc2)c2ccccc12` has an Activity [5] of 400 mm3.

With `CN1C(=O)[C@@]23C[C@]4([C@]56C[C@@]78SS[C@@](CO)(C(=O)N7[C@H]5Nc5ccccc56)N(C)C8=O)c5ccccc5N[C@@H]4N2C(=O)[C@]1(CO)SS3` [CHAETOCIN] the IC50 [6] was 0.1 µM, the IC50 [7] was 0.04 µM and the IC50 [8] was 12.5 µM.

Work on `COC(=O)c1ccc2[nH]c(COc3ccc(C45CC6CC(CC(C6)C4)C5)cc3)nc2c1` yielded a TGI [9] of 58.6%.

With `O=C(COc1ccc(C23CC4CC(CC(C4)C2)C3)cc1)Nc1cc(C(=O)NCCCn2ccnc2)ccn1` the Papp at 5 µM [10] was 229 nm/s, the Activity [11] was 92.7% and the inhibition in vivo at 30 mg/kg [12] was 51.3%.

Work on `Cc1ccc(Cn2nc(-c3nc4ccc(-c5ccc(Cl)cc5)cc4[nH]3)cc2C)cc1` yielded an IC50 [13] of 0.003 µM.

In the case of `COc1c(C(C2CCCCC2)n2cnc3c(Cl)cccc32)ccc2c1C=CC(C)(C)O2` (centres undefined), the IC50 [14] is reported as 7.5 µM.

`CS[C@H]1SC[C@H]2C(=O)N(C)[C@@H](C(C)C)C(=O)OC[C@@H](NC(=O)c3cnc4ccccc4n3)C(=O)N[C@@H](C)C(=O)N(C)[C@@H]1C(=O)N(C)[C@@H](C(C)C)C(=O)OC[C@@H](NC(=O)c1cnc3ccccc3n1)C(=O)N[C@@H](C)C(=O)N2C` [ECHINOMYCIN] showed an EC50 [15] of 0.0012 µM.

For `OCc1ccc(-c2nn(Cc3ccccc3)c3ccccc23)o1`, the Activity [5] was 400 mm3.

In the case of `COC(=O)c1ccc(O)c(NC(=O)COc2ccc(C34CC5CC(CC(C5)C3)C4)cc2)c1`, the Activity [16] is reported as 53.6%.
